# Laboratory results from US4948786A, “Composition for treatment of ischemic disorder in organs” (Takeda Chemical Industries, Ltd., priority 1988, dated 1990).
# Where a name gives a salt, the structure may show the parent alone.
# Legend:
# [1] = test system: Lipid Peroxidation in Rat Brain Homogenate; settings: for Inhibitory Effect (%): final concentration 10^-4 M, 5% homogenate, pH 7.4, 37° C., 1 hour, vs DMSO reference, malonic dialdehyde by TBA method
# [2] = Acute toxicity (LD50); settings: in vivo, rat
# [3] = test system: ischemic-reperfused rat heart; assay: Reducing activity against the size of infarction in ischemic-reperfused rat heart; assay type: in vivo, rat (Wistar male); settings: i.v.; for Size of Infarction (% of left ventrical) / Inhibition (% of Control): 30 minutes after ligation; for Size of Infarction (% of left ventrical): mean ± SEM, control 35.0 ± 2.9
# Experimental: Reducing activity of α-EPC-Na(DL) against the size of infarction in ischemic-reperfused rat heart:
# Wistar male rats (body weight […]) were anesthetized with pentobarbital and subjected to thoracetomy. The left anterior descending coronary artery (LAD) was ligated at its origin for 1 hour. Then, the ligation was released to allow reperfusion. After 30 to 60 minutes reperfusion, the chest was closed and the animals (rats) maintained in conscious state. After 24 hours, the animals (rats) were reanesthetized, and then the heart was excised. The left ventricles were cut parallel to the atrioventricular sulcus into slices. The slices were stained at 37° C. for 15 minutes using triphenyltetrazolium chloride, and the size of infarction was weighed.
# α-EPC-Na dissolved in saline solution was administered into the femoral vein at doses of 0.3, 1 and 5 mg/kg 30 minutes after the ligation. For the control group, only saline solution was administered.
smiles,measurement,setting,value
"CC(C)CCCC(C)CCCC(C)CCCC1(C)CCc2cc(OP(=O)(O)OC3=C(O)[C@@H]([C@@H](O)CO)OC3=O)ccc2O1 (mixture of isomers) [TPC-Na(DL), L-Ascorbic acid DL-tocoryl phosphate diester sodium salt]",Inhibitory Effect (%),[1],35.7 ± 2.6%
"Cc1c(C)c2c(c(C)c1OP(=O)(O)OC1=C(O)[C@@H]([C@@H](O)CO)OC1=O)CCC(C)(CCCC(C)CCCC(C)CCCC(C)C)O2 (mixture of isomers) [α-EPC-Na(DL), L-Ascorbic acid, DL-α-tocopheryl phosphate diester sodium salt]",LD50,"[2]; sc, subcutaneous administration",737 mg/kg
same,LD50,[2]; oral administration,> 10000 mg/kg
same,Inhibitory Effect (%),[1],61.8 ± 38.1%
same,Size of Infarction (% of left ventrical),[3]; 0.3 mg/kg,32.4 ± 4.3 % of left ventrical
same,Inhibition (% of Control),[3]; 1.0 mg/kg,-22.3 % of Control
same,Size of Infarction (% of left ventrical),[3]; 1.0 mg/kg,27.2 ± 2.8 % of left ventrical
same,"size of myocardial infarction, reduced to",[3]; 5 mg/kg,about 50%
same,Inhibition (% of Control),[3]; 5.0 mg/kg,-47.7 % of Control
same,Size of Infarction (% of left ventrical),[3]; 5.0 mg/kg,18.3 ± 1.1 % of left ventrical
same,reduction of the size of myocardial infarction (in words),"[3]; 0.3, 1 and 5 mg/kg",reduced the size of myocardial infarction dose-dependently
"Cc1cc(OP(=O)(O)OC2=C(O)[C@@H]([C@@H](O)CO)OC2=O)c(C)c2c1OC(C)(CCCC(C)CCCC(C)CCCC(C)C)CC2 (mixture of isomers) [β-EPC-K(DL), L-Ascorbic acid DL-β-tocopheryl phosphate diester potassium salt]",Inhibitory Effect (%),[1],58.9 ± 19.4%
"Cc1c(C)c2c(c(C)c1O)CCC(C)(CCCC(C)CCCC(C)CCCC(C)C)O2 (racemic) [DL-α-tocopherol, reference compound]",Inhibitory Effect (%),[1],50.8 ± 18.5%
"O=C1O[C@H]([C@@H](O)CO)C(O)=C1O [L-ascorbic acid, reference compound]",inhibition of lipid peroxidation (in words),"[1]; 10^-4 M, rat brain homogenate",did not inhibit lipid peroxidation
same,Inhibitory Effect (%),[1],1.6 ± 15.0%
"Cc1c(OP(=O)(O)OC2=C(O)[C@@H]([C@@H](O)CO)OC2=O)cc2c(c1C)O[C@](C)(CCC[C@H](C)CCC[C@H](C)CCCC(C)C)CC2 [γ-EPC-K(D), L-Ascorbic acid D-γ-tocopheryl phosphate diester potassium salt]",Inhibitory Effect (%),[1],62.0 ± 8.2%
"Cc1cc(OP(=O)(O)OC2=C(O)[C@@H]([C@@H](O)CO)OC2=O)cc2c1O[C@](C)(CCC[C@H](C)CCC[C@H](C)CCCC(C)C)CC2 [δ-EPC-K(D), L-ascorbic acid D-δ-tocopheryl phosphate diester]",Inhibitory Effect (%),[1],38.1 ± 8.3%
